Laboratory results taken from patent publication US20060004088A1, “Furan derivatives for preventing and curing osteoporosis and pharmaceutical compositions containing the same” (OCT INC., priority 2002, published 2006).
“Also recorded” adds a separate entry of the source.

Tests used:
[1] = test system: osteoclast progenitor cells; assay: Formation of TRAP-positive multinucleated cells from osteoclast progenitors; assay type: cell-based, mice; conditions: for No. of TRAP(+) multinucleated cells: M-CSF + RANKL, untreated control 132.80 ± 10.50; for number of TRAP-positive multinucleated cells in treated cultures: text summary, concentration not stated, control 132
Protocol: (§1) First, bone marrow cells were isolated, as follow. After sacrificing 7-9 week female mice by cervical dislocation, femur and tibia were excised aseptically while removing attached soft tissues. After cutting both ends of long bones, 1 ml of an enzyme solution, containing 0.1% collagenase (Gibco), 0.05% trypsin and 0.5 mM EDTA (Gibco), was injected to the bone marrow cavity at one end using a syringe with a 26-guage needle, and bone marrow was then collected. After shaking the recovered bone marrow for 30 min, bone marrow cells were collected, and cultured in α-minimum essential medium (α-MEM) supplemented with 10% FBS for 24 hrs. Then, non-adherent cells were collected, which are osteoclast pregenitors, aliquotted onto culture plates at a density of 2×10^5 cells per well, and cultured for 8 days in α-MEM supplemented with 20 ng/ml of macrophage-colony stimulating factor (M-CSF, Peprotech, USA) and 30 ng/ml RANKL (Peprotech, USA). During the 8 days of culturing, the cells were treated with the Compound 1. Thereafter, osteoclast formation was investigated by fixing the cultured cells and then carrying out TRAP staining, as described in the following Experimental Example 2.2. In addition, resorption activity of osteoclasts was investigated by measuring the absorption area after removing osteoclasts in cultures in calcium phosphate-coated plates, as described in Experimental Example 2.3, below.
After cell culture, the adherent cells were washed with PBS, and TRAP staining was performed, as follows. After being fixed with citrate-acetate-formaldehyde for 5 min, the cells were incubated for 1 hr in acetate buffer (prewarmed at 37° C., pH 5.0) containing naphthol AS-BI phosphate, fast Garnet GBC and 7 mM tartrate buffer (pH 5.0). TRAP-positive multinucleated cells having 3 or more nuclei were considered as osteoclasts.

[2] = test system: female white mice with osteoporosis induced by ovariectomy; assay: Preventive effect 1 on osteoporosis, tibia histology, oral administration; assay type: in vivo; conditions: oral for four weeks immediately after ovariectomy
Protocol: In order to evaluate effects of the compound of the present invention on treatment and prevention of osteoporosis, female white mice with osteoporosis induced by ovariectomy were used as a disease model. After ovariectomy, mice were administered with the compound of the present invention. Tibias were dissected from the mice, and observed histologically.
After anesthetizing female white mice with 100 mg/kg of Ketamine (Ketara) and 0.15 ml/kg of 2% Xylazine (Rompun), the lumbar dorsum is shaved bilaterally and the exposed skin was prepared for aseptic surgery by a 10% povidone-iodine scrub followed by a 70% alcohol wipe.
A 1-cm incision was made in the central region of the abdomen, and the ovary was identified along with the uterus with caution not to damage the main organs such as the liver and diaphragm. After ligating the uterus with a thread for suturing, the exposed ovary was severed toward both sides and removed. Thereafter, each organ was relocated to its original position, and the incision was closed with a thread for suturing in an interrupted pattern. […]
The daily dosage of the Compound 1 per female white mouse was determined based on 250 g body weight. […] With caution not to exchange the water bottles between the groups, everyday, the number of mice was recorded, and the mixture was prepared based on the number of mice. […]

osteoclasts = assay: Resorption activity of osteoclasts on calcium phosphate-coated plates (resorption pit area); assay type: cell-based, mice; conditions: for Resorption activity of osteoclasts, %: control = 100; for area of resorption pits compared to the control: text summary, concentration not stated
Protocol: as §1
The differentiated osteoclasts were cultured on calcium phosphate-coated plates (OAASTM, OCT, Korea) in order to evaluate resorption activity of the cells. After removing culture medium, to remove the adherent cells, the plates were washed with distilled water three times, and incubated in 5% sodium hypochlorite for 5 min. After washing again with distilled water and drying the plates, the area of formed resorption pits was calculated by means of an Image Pro Plus software.

O=Cc1ccc(CO)o1 [Compound 1, 5-hydroxymethylfuran-2-carboxyaldehyde]
No. of TRAP(+) multinucleated cells ([1]; 10^−4 M Compound 1, 8 days): 77.20 ± 6.73
No. of TRAP(+) multinucleated cells ([1]; 10^−5 M Compound 1, 8 days): 108.20 ± 4.57
No. of TRAP(+) multinucleated cells ([1]; 10^−6 M Compound 1, 8 days): 103.60 ± 6.95
No. of TRAP(+) multinucleated cells ([1]; 10^−7 M Compound 1, 8 days): 120.00 ± 6.42
No. of TRAP(+) multinucleated cells ([1]; 10^−8 M Compound 1, 8 days): 105.20 ± 8.58
number of TRAP-positive multinucleated cells in treated cultures [1]: 77
number of TRAP-positive multinucleated cells in treated cultures ([1]; listed as Example 1): remarkably reduced
cortical and trabecular bone compared to the control group, 40× magnification [2]: marked increase in the cortical and trabecualr bone
trabecular bone loss in tibia, light microscopy ([2]; 10 mg/day, 12.5× and 40× magnification): such trabecular bone loss was not observed; also recorded: no trabecular bone loss
Resorption activity of osteoclasts, % (osteoclasts; 10^−4 M Compound 1, area of resorption pits): 52.34 ± 8.28%
Resorption activity of osteoclasts, % (osteoclasts; 10^−5 M Compound 1, area of resorption pits): 46.92 ± 3.60%
Resorption activity of osteoclasts, % (osteoclasts; 10^−6 M Compound 1, area of resorption pits): 41.75 ± 14.07%
Resorption activity of osteoclasts, % (osteoclasts; 10^−7 M Compound 1, area of resorption pits): 61.46 ± 10.35%
Resorption activity of osteoclasts, % (osteoclasts; 10^−8 M Compound 1, area of resorption pits): 66.03 ± 7.49%
area of resorption pits compared to the control (osteoclasts): about 50%
area of resorption pits compared to the control (osteoclasts; listed as Example 1): inhibit bone resorption activity of osteoclasts
